Source: ChEMBL document CHEMBL1146224, “Design, synthesis, and characterization of novel iron chelators: structure-activity relationships of the 2-benzoylpyridine thiosemicarbazone series and their 3-nitrobenzoyl analogues as potent antitumor agents” (J Med Chem, 2007)
pIC50: −log10 of the molar value.

What was measured:
[1] = system: MRC5; test: Antiproliferative activity against human MRC5 cells after 72 hrs by MTT assay; format: cell-based; conditions: MRC5, 72 h
[2] = Partition coefficient, log P of the compound; format: physicochemical; conditions: octanol/water
[3] = system: SK-N-MC; test: cells; conditions: Homo sapiens, 72 h
Description: Antiproliferative activity against human SK-N-MC cells after 72 hrs by MTT assay

[4] = system: SK-N-MC; test: Effect on iron release in SK-N-MC cells; format: functional, Homo sapiens
[5] = system: SK-N-MC; test: Inhibition of iron uptake from transferrin in SK-N-MC cells at 50 uM relative to control; format: functional, Homo sapiens; set-up: scale not given: the % may be the effect or the level left

Row | Structure (SMILES) | pIC50 [1] | logP [2] | pIC50 [3] | Activity [4] [%] | Activity [5] [%]
1 | CN(C)C(=S)N/N=C(\c1ccccc1)c1ccccn1 | < 5.20 | 1.29 | 8.40 |  | 
2 | NC(=S)N/N=C(\c1ccccc1)c1ccccn1 |  | 1.92 | 5.33 | 23 | 
3 | CNC(=S)N/N=C(\c1ccccc1)c1ccccn1 | < 5.20 | 0.74 | 8.40 |  | 
4 | CN(C)C(=S)NN=C(c1ccccn1)c1ccccn1 |  |  | 9.00 |  | 
5 | O=C(N/N=C/c1c(O)ccc2ccccc12)c1ccncc1 |  |  | 6.15 |  | 9
6 | NC(=S)N/N=C(\c1cccc([N+](=O)[O-])c1)c1ccccn1 |  | 1.9 | 5.42 | 43 | 7
7 | CNC(=S)N/N=C(\c1cccc([N+](=O)[O-])c1)c1ccccn1 |  | 2.14 | 6.89 |  | 8
8 | CCNC(=S)N/N=C(\c1cccc([N+](=O)[O-])c1)c1ccccn1 | 5.64 | 2.53 | 7.85 |  | 
9 | C=CCNC(=S)N/N=C(\c1ccccc1)c1ccccn1 | < 5.20 | 2.69 | 8.40 |  | 
10 | C=CCNC(=S)N/N=C(\c1cccc([N+](=O)[O-])c1)c1ccccn1 | 5.62 | 1.7 | 7.89 |  | 11
11 | S=C(N/N=C(\c1ccccc1)c1ccccn1)Nc1ccccc1 | 5.73 | 1.92 | 8.30 |  | 
12 | CCNC(=S)N/N=C(\c1ccccc1)c1ccccn1 | < 5.20 | 4.01 | 8.70 |  | 
13 | CC(=O)N(O)CCCCCNC(=O)CCC(=O)N(O)CCCCCNC(=O)CCC(=O)N(O)CCCCCN [DEFEROXAMINE] |  |  | 5.35 | 7 | 
14 | Cc1ncc(CO)c(/C=N/NC(=O)c2ccncc2)c1O [PYRIDOXAL ISONICOTINOYL HYDRAZONE] |  |  |  |  | 21
15 | NC(=S)N/N=C/c1ncccc1N [TRIAPINE] |  |  | 6.59 |  | 
